According to patent publication US20240299488A1, “METHODS AND COMPOSITIONS FOR IMPROVING VISUAL FUNCTION IN OCULAR DISEASES AND DISORDERS” (ONL Therapeutics, Inc., priority 2021, published 2024):
“And” between values parts separate entries of the source, which are not always exact repeats. Equal entries are not always repeated. Ends that are not written are not given here.

Columns and labels:
Format in all cases: in vivo, human
[1] = system: patients having macular degeneration characterized by geographic atrophy (GA); test: Example I: BCVA in GA patients after single intravitreal injection
[2] = system: patients with retinal detachment; test: Example 2: BCVA in retinal detachment patients, intravitreal injection followed by surgical repair; parameters: key to BCVA Snellen study eye: (HM) = hand motion; (CF) = counting fingers; details: for summary statistics for all patients, mean: doses 25 to 200 ug, baseline mean 1.86
Procedure: (§1) The primary objective was to determine the Maximum Tolerated Dose (MTD) of a peptide an amino acid sequence […] and the structure of Formula III (ONL1204) and select doses for further clinical studies. During the study, ocular fluid samples were also collected at the time of study drug injection and at the time of vitrectomy. These samples were used for pharmacokinetic and pharmacodynamic analyses.
(§2) Patients were enrolled in ascending dose groups. […] Safety visits were conducted one day post-injection and as deemed necessary by the examining Investigator (at least 1 visit every 3 days) until Visit 3. At Visit 3 (3+ days post-injection, in accordance with standard of care) patients underwent surgical repair of their retinal detachment with vitrectomy (with or without scleral buckling) and gas or oil tamponade. At the time of surgery, an undiluted vitreous sample was collected for pharmacokinetic and pharmacodynamics analyses, and an aqueous sample was collected for pharmacodynamic analysis. Additional safety visits were targeted for and generally conducted one day post-surgery, 7 days (±3 days) post-surgery, 14 (+4 days) days post-surgery, and Weeks 6, 9, 12 (±7 days each), and Week 24 (+14 days; study exit).
Therefore, a volume of 0.05 or 0.1 mL was injected into the study eye. Patient participation was approximately 24 weeks (6 months): a single injection treatment and 24 weeks of follow-up.

[3] = system: patients with retinal detachment; test: Example 2: safety, adverse event reporting
Procedure: as §1, §2
The following doses were evaluated: 25 microgram (ug) and 50 ug provided in vials with concentrations of 0.5 mg/mL and/or 2 mg/mL of Formula III. Therefore, a volume of 0.05 or 0.1 mL was injected into the study eye. Patient participation was approximately 24 weeks (6 months): a single injection treatment and 24 weeks of follow-up.
Planned determinations of dose limiting toxicity included consideration of the following events: • 1.

MCP1 = test: Example 2: change in cytokine level in ocular fluid samples, MCP1
Procedure: as §1, §2

ICAM1 = test: Example 2: change in cytokine level in ocular fluid samples, ICAM1
Procedure: as §1, §2

IL1RA = test: Example 2: change in cytokine level in ocular fluid samples, IL1RA
Procedure: as §1, §2

IL18 = test: Example 2: change in cytokine level in ocular fluid samples, IL18
Procedure: as §1, §2

[4] = dose 25 ug (Table 1), individual patients
[5] = dose 50 ug (Table 1), individual patients
[6] = dose 100 ug (Table 1), individual patients
[7] = dose 200 ug (Table 1), individual patient

HHIYLGAVNYIY-NH2 [ONL1204]
change in best corrected visual acuity (BCVA) ([1]; compared to baseline BCVA, FIG. 1, 1 to 24 weeks post treatment): improvement in visual acuity was generally observed | visual outcomes (e.g., visual acuity) ([1]; doses comprising 25 ug and 50 ug, single intravitreal injection): showed an improvement in visual outcomes | summary statistics for all patients, mean ([2]; Week 6, n 14): 0.65 | summary statistics for all patients, mean ([2]; Week 9, n 13): 0.78 | summary statistics for all patients, mean ([2]; Week 24, n 13): 0.56 | visual outcomes, all patients receiving ONL1204 ([2]; also with greater than 10 days of central vision loss, 3 to 7 days from administration to surgery, range of detachment heights and extents): improved visual outcomes were observed for all patients receiving ONL1204 | visual outcomes (e.g., visual acuity) ([2]; retinal detachment patients, doses comprising 25 ug and 50 ug, with surgery): showed an improvement in visual outcomes | BCVA Snellen study eye ([2]; week 9, dose 100 ug, individual patients): HM | patients who experienced adverse events ([3]; 4 patients receiving 25 ug and 4 patients receiving 50 ug): 7 out of 8 | severity and relatedness of adverse events ([3]; 8 patients, 25 ug and 50 ug): Most were mild, and study procedure or surgery related | total number of adverse events ([3]; 8 patients, 25 ug and 50 ug): 20 | Percent Change (%) from time of administering ONL1204 to surgery, MCP1 (MCP1; [4]): −41.4% and −6.02% and −35.9% | Percent Change (%) from time of administering ONL1204 to surgery, MCP1 (MCP1; [5]): −3.12% and −48.4% and 11.6% | Percent Change (%) from time of administering ONL1204 to surgery, MCP1 (MCP1; [6]): −9.5% and 78.5% and 500% | Percent Change (%) from time of administering ONL1204 to surgery, MCP1 (MCP1; [7]): −2.4% | change in cytokine levels (MCP 1, ICAM, IL IRA, and IL 18) from time of ONL1204 administration to surgery (MCP1; mean over patients of Table 7): mean decrease | Percent Change (%) from time of administering ONL1204 to surgery, ICAM1 (ICAM1; [4]): −82.4% and −42.7% and −86.2% | Percent Change (%) from time of administering ONL1204 to surgery, ICAM1 (ICAM1; [5]): 64.0% and −100% and 0% | Percent Change (%) from time of administering ONL1204 to surgery, ICAM1 (ICAM1; [6]): −43.9% and 24.9% and 22.7% | Percent Change (%) from time of administering ONL1204 to surgery, ICAM1 (ICAM1; [7]): 0% | Percent Change (%) from time of administering ONL1204 to surgery, IL1RA (IL1RA; [4]): −51.0% and −57.4% and −99.3% | Percent Change (%) from time of administering ONL1204 to surgery, IL1RA (IL1RA; [5]): −60.0% and −94.4% and −88.3% | Percent Change (%) from time of administering ONL1204 to surgery, IL1RA (IL1RA; [6]): 8.5% and −46.1% and −65.2% | Percent Change (%) from time of administering ONL1204 to surgery, IL1RA (IL1RA; [7]): −26.3% | Percent Change (%) from time of administering ONL1204 to surgery, IL18 (IL18; [4]): −60.5% and −22.5% and −50.8% | Percent Change (%) from time of administering ONL1204 to surgery, IL18 (IL18; [5]): 0% (2×) and −100% | Percent Change (%) from time of administering ONL1204 to surgery, IL18 (IL18; [6]): −33.7% and 0% and 66.0% | Percent Change (%) from time of administering ONL1204 to surgery, IL18 (IL18; [7]): 0%
